The values below come from patent US8436006B2, “2-amino-quinazoline derivatives useful as inhibitors of β-secretase (BACE)” (Jansssen Pharmaceutica N.V., priority 2004, dated 2013).

Bounds are passed on as bounds.

The target of this assay is T1, β-secretase (BACE) (Homo sapiens, UniProt P56817).
T1 construct: purchased Panvera
Kind of assay: BACE FS1% Inhibition Assay (Example 160). It is filed as biochemical. As for the experimental part: The following reagents were used in this assay: sodium acetate, PEB8000 (Sigma), DMSO, HEPES, FS1 substrate [[…]], β-secretase (BACE) (Panvera), and 96-well plate (HE microplate, Molecular Devices). […] The FS1-substrate stock solution was prepared in DMSO as a 10 mg/mL solution. The FS1-substrate working solution was prepared by diluting the 10 mg/mL stock solution with substrate assay buffer to a final concentration of 300 μg/mL. The β-secretase (BACE) working solution was prepared by diluting a 0.83 mg/mL BACE stock solution with enzyme assay buffer to a final concentration of 4 μg/mL. Test compounds were dissolved in DMSO to 10 mM. […] The screening procedure for this assay was as follows: 15 μL of BACE working solution was pipetted into each well of a 96-well plate. To each well was the pipetted 2 μL of test compound at the selected concentration. Test compound and BACE were then mixed with a pipettor and incubated for 20 min at room temperature. To each well was then added 10 μL of the FS1 substrate working solution. The plates were then incubated for 1 hour at room temperature. […] The procedure for the blank was as follows. 15 μL of assay buffer was pipetted into each well to be used as a blank control. To each well was then added 2 μL of vehicle and 10 μL of FS1-substrate working solution. The plates were then incubated for 1 hour at room temperature. […] The procedure for the positive control was as follows: 15 μL of BACE working solution was pipetted into each well to be used as a positive control. To each well was then pipetted 2 μL of vehicle. Vehicle and BACE were then mixed with a pipettor and incubated for 20 min at room temperature. To each well was then added 10 μL of the FS1 substrate working solution. The plates were then incubated for 1 hour at room temperature. […] For test compounds, % inhibition was determined at each concentration as follows: [formula]

T1 sequence (P56817 46-501): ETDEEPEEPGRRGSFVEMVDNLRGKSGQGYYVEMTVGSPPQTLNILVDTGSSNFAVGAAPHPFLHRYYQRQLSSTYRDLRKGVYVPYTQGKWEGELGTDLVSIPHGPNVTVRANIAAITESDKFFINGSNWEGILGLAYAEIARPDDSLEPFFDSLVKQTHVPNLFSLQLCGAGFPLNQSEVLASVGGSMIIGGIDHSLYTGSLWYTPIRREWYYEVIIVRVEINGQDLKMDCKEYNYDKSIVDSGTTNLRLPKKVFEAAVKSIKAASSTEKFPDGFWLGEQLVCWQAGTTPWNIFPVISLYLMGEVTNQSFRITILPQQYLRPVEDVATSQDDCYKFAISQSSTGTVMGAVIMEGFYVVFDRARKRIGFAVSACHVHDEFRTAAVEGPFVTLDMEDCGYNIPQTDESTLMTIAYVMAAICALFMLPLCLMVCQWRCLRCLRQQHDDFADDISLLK

`COC(=O)Cc1cccc(CN(C)C(=O)CCC(C2CCCCC2)N2Cc3cc(Oc4ccccc4)ccc3N=C2N)c1` (stereo not shown) [Compound 775]: the “% Inhibition (FS)” value is on record as less than 30% (0.3 μM test compound) and 62% (1 μM test compound).
Take `NC1=Nc2ccc(-c3ccc4ccccc4c3)cc2CN1CCNC(=O)CCC(F)(F)F` [Compound 686]: the “% Inhibition (FS)” value by setting is: (0.3 μM test compound) less than 30%; (1 μM test compound) 73%; (3 μM test compound) 80%.
Regarding `CN(CCC#N)C(=O)CC[C@@H](C1CCCCC1)N1Cc2cc(-c3ccccc3F)ccc2N=C1N` [Compound 725], the “% Inhibition (FS)” value is, setting by setting: (0.3 μM test compound) 33%; (1 μM test compound) 74%; (3 μM test compound) 126%.
In the case of `COC1CCCC(C(=O)NCCN2Cc3cc(-c4ccccc4C)ccc3N=C2N)C1` (stereo not shown) [Compound 696], the “% Inhibition (FS)” value is on record as less than 30% (0.3 μM test compound) and 72% (1 μM test compound).
Turning to `Cc1ccccc1-c1ccc2c(c1)CN(CCNC(=O)CCC(C)C)C(N)=N2` [Compound 661], the “% Inhibition (FS)” value runs as follows: (0.3 μM test compound) 68%; (1 μM test compound) 98%.
In the case of `NC1=Nc2ccc(-c3ccccc3)cc2CN1CCNC(=O)CCC(F)(F)F` [Compound 684], the “% Inhibition (FS)” value is, setting by setting: (0.3 μM test compound) 33%; (1 μM test compound) 38%; (3 μM test compound) 78%.
In the case of `CC(C)[C@H](CNC(=O)C1CCCCC1)N1Cc2cc(Oc3ccccc3)ccc2N=C1N` [Compound 561], the “% Inhibition (FS)” value (0.3 μM test compound) came to 114%, the “% Inhibition (FS)” value (1 μM test compound) was found to be 118% and the “% Inhibition (FS)” value (3 μM test compound) was found to be 125%.
For the molecule `CN(CCc1ccccc1)C(=O)CC[C@@H](C1CCCCC1)N1Cc2cc(-c3ccccc3F)ccc2N=C1N` [Compound 727], the “% Inhibition (FS)” value worked out at 46% (0.3 μM test compound) and 80% (1 μM test compound).
Turning to `NC1=Nc2ccc(-c3ccccc3)cc2CN1CCNC(=O)C1CCC(C(F)(F)F)CC1` (stereo not shown) [Compound 701], the “% Inhibition (FS)” value reads like this: (0.3 μM test compound) less than 30%; (1 μM test compound) less than 30%; (3 μM test compound) 54%.
On to `Cc1ccccc1-c1ccc2c(c1)CN(CCNC(=O)C1CCC(C(F)(F)F)CC1)C(N)=N2` (stereo not shown) [Compound 694], for which the “% Inhibition (FS)” value is listed as less than 30% (0.3 μM test compound), less than 30% (1 μM test compound) and 84% (3 μM test compound).
As for `COc1ccccc1-c1ccc2c(c1)CN([C@@H](CCC(=O)N(C)Cc1cc(-c3ccccc3)on1)C1CCCCC1)C(N)=N2` [Compound 719], the “% Inhibition (FS)” value runs as follows: (0.3 μM test compound) 31%; (1 μM test compound) less than 30%; (3 μM test compound) 81%.
For `CCCC(=O)NCCN1Cc2cc(-c3cnc4ccccc4c3)ccc2N=C1N` [Compound 673], in that order: 34%, less than 30% and less than 30%.
In the same order, the values of `Cc1ccccc1-c1ccc2c(c1)CN(CCNC(=O)CCC(F)(F)F)C(N)=N2` [Compound 678] are 51%, 88% and 99%.
Take `NC1=Nc2ccc(-c3cnc4ccccc4c3)cc2CN1CCNC(=O)C1CCC1` [Compound 670]: the “% Inhibition (FS)” value by setting is: (0.3 μM test compound) less than 30%; (1 μM test compound) less than 30%; (3 μM test compound) 44%.
On to `CC(CC(=O)NCCN1Cc2cc(-c3ccccc3F)ccc2N=C1N)C(F)(F)F` (stereo not shown) [Compound 681], for which the “% Inhibition (FS)” value reads like this: (0.3 μM test compound) 67%; (1 μM test compound) 100%.
Regarding `CCOC(=O)C1CCC(N(C)C(=O)CCC(C2CCCCC2)N2Cc3cc(Oc4ccccc4)ccc3N=C2N)CC1` (stereo not shown) [Compound 763], the “% Inhibition (FS)” value is reported as less than 30% (0.3 μM test compound, 0.3 µM) and 84% (1 μM test compound, 1 µM).
For the molecule `NC1=Nc2ccc(Oc3ccccc3)cc2CN1CCNC(=O)C1(c2ccc(Cl)cc2)CCCC1` [Compound 196], the “% Inhibition (FS)” value (0.3 μM test compound) is 65%, the “% Inhibition (FS)” value (1 μM test compound) worked out at 96% and the “% Inhibition (FS)” value (3 μM test compound) came to 120%.
In the same order, the values of `CN(C(=O)CC[C@@H](C1CCCCC1)N1Cc2ccc(Oc3ccccc3)cc2N=C1N)C1CCCCC1` [Compound 754] are 8%, 35% and 89%.
For the molecule `CN(CC(=O)O)C(=O)CCC(C1CCCCC1)N1Cc2cc(Oc3ccccc3)ccc2N=C1N` (stereo not shown) [Compound 767], the “% Inhibition (FS)” value reads like this: (0.3 μM test compound) less than 30%; (1 μM test compound) 71%.
As to `COc1cccc(F)c1-c1ccc2c(c1)CN(CCNC(=O)C1CCC(C(F)(F)F)CC1)C(N)=N2` (stereo not shown) [Compound 700], the “% Inhibition (FS)” value by setting is: (0.3 μM test compound) less than 30%; (1 μM test compound) 36%; (3 μM test compound) 85%.
For `NC1=Nc2ccc(C3=CCCCC3)cc2CN1CCNC(=O)C1CCC(C(F)(F)F)CC1` (stereo not shown) [Compound 704], in that order: less than 30%, less than 30% and less than 30%.
Regarding `CC(C)(C)C(=O)NCCN1Cc2cc(-c3ccc4ccccc4c3)ccc2N=C1N` [Compound 667], the “% Inhibition (FS)” value by setting is: (0.3 μM test compound) 33%; (1 μM test compound) less than 30%; (3 μM test compound) less than 30%.
Turning to `NC1=Nc2ccc(-c3ccccc3F)cc2CN1CCNC(=O)CCC(F)(F)F` [Compound 680], the “% Inhibition (FS)” value is, setting by setting: (0.3 μM test compound) 42%; (1 μM test compound) 75%; (3 μM test compound) 90%.
On to `CCCCC(CC)C(=O)NCCN1Cc2cc(-c3ccc4ccccc4c3)ccc2N=C1N` (stereo not shown) [Compound 669], for which the “% Inhibition (FS)” value was less than 30% (0.3 μM test compound), less than 30% (1 μM test compound) and 32% (3 μM test compound).
On to `CC(=O)N1CCC(C(=O)NCCN2Cc3cc(-c4ccccc4C)ccc3N=C2N)CC1` [Compound 695], for which the “% Inhibition (FS)” value is, setting by setting: (0.3 μM test compound) less than 30%; (1 μM test compound) less than 30%; (3 μM test compound) 54%.
With `Cc1ccccc1-c1ccc2c(c1)CN(CCNC(=O)CC(C)C(F)(F)F)C(N)=N2` (stereo not shown) [Compound 679], the “% Inhibition (FS)” value by setting is: (0.3 μM test compound) 78%; (1 μM test compound) 99%.
`CN(C(=O)CCC(C1CCCCC1)N1Cc2cc(Oc3ccccc3)ccc2N=C1N)C1CCC(c2nn[nH]n2)CC1` (stereo not shown) [Compound 770]: the “% Inhibition (FS)” value (0.3 μM test compound) is recorded as less than 30%, the “% Inhibition (FS)” value (1 μM test compound) is listed as less than 30% and the “% Inhibition (FS)” value (3 μM test compound) was less than 30%.
Regarding `NC1=Nc2ccc(-c3ccccc3Cl)cc2CN1CCNC(=O)C1CCOCC1` [Compound 689], the “% Inhibition (FS)” value (0.3 μM test compound) came out at 33% and the “% Inhibition (FS)” value (1 μM test compound) stood at 82%.
With `CC(=O)N1CCC(C(=O)NCCN2Cc3cc(-c4ccccc4Cl)ccc3N=C2N)CC1` [Compound 691], the “% Inhibition (FS)” value is recorded as less than 30% (0.3 μM test compound), less than 30% (1 μM test compound) and 51% (3 μM test compound).
Take `COC(=O)C1CCCC(N(C)C(=O)CCC(C2CCCCC2)N2Cc3cc(Oc4ccccc4)ccc3N=C2N)C1` (mixture of isomers) [Compound 777]: the “% Inhibition (FS)” value by setting is: (0.3 μM test compound) 38%; (1 μM test compound) 97%.
In the same order, the values of `COC(=O)C(COCc1ccccc1)N(C)C(=O)CCC(C1CCCCC1)N1Cc2cc(Oc3ccccc3)ccc2N=C1N` (stereo not shown) [Compound 780] are 69% and 97%.
Take `CC(CC(=O)NCCN1Cc2cc(-c3ccccc3)ccc2N=C1N)C(F)(F)F` (stereo not shown) [Compound 685]: the “% Inhibition (FS)” value is listed as 50% (0.3 μM test compound) and 90% (1 μM test compound).
`CN(C(=O)CCC(C1CCOCC1)N1Cc2cc(Oc3ccccc3)ccc2N=C1N)C1CCC(C(=O)O)CC1` (stereo not shown) [Compound 743]: for the setting “3 μM test compound”, the “% Inhibition (FS)” value came to 130%.
Regarding `NC1=Nc2ccc(-c3ccc4ccccc4c3)cc2CN1CCNC(=O)C12CC3CC(CC(C3)C1)C2` [Compound 665], the “% Inhibition (FS)” value is 35% (0.3 μM test compound), less than 30% (1 μM test compound) and less than 30% (3 μM test compound).
`CCCC(CCC)C(=O)NCC(C1CCCCC1)N1Cc2cc(Oc3ccccc3)ccc2N=C1N` (stereo not shown) [Compound 302]: the “% Inhibition (FS)” value reads like this: (0.3 μM test compound) less than 30%; (1 μM test compound) 72%; (3 μM test compound) 108%.
For `CC(=O)N1CCC(C(=O)NCCN2Cc3cc(-c4ccccc4)ccc3N=C2N)CC1` [Compound 702], in that order: less than 30%, less than 30% and less than 30%.
In the same order, the values of `COc1ccc(C(CCC(=O)N(C)C2CCCCC2)N2Cc3cc(Oc4ccccc4)ccc3N=C2N)cc1` (stereo not shown) [Compound 298] are less than 30%, 75% and 110%.
For the molecule `NC1=Nc2ccc(C3=CCCC3)cc2CN1CCNC(=O)C1CCC(C(F)(F)F)CC1` (stereo not shown) [Compound 707], the “% Inhibition (FS)” value is on record as less than 30% (0.3 μM test compound), less than 30% (1 μM test compound) and less than 30% (3 μM test compound).
As for `CCCCCC(CCC(=O)NC1CCCCC1)N1Cc2cc(Oc3ccccc3)ccc2N=C1N` (stereo not shown) [Compound 149], the “% Inhibition (FS)” value runs as follows: (0.3 μM test compound) 32%; (1 μM test compound) 71%; (3 μM test compound) 111%.
